According to PMC10287566, “Signaling-specific inhibition of the CB1 receptor for cannabis use disorder: phase 1 and phase 2a randomized trials” (Nature Medicine, 2023):

Assays:
DIO mice = test: Food intake and body weight in diet-induced obese mice, repeated treatment; type: in vivo; conditions: mice, acute and repeated 28 d, highest dose tested 15 mg/kg
Procedure: Body weight and food intake were studied because they are reduced by repeated treatment with rimonabant both in mice[31] and in humans. DIO mice were used because the effects of CB1 antagonists are of greater amplitude in obese mice than in lean mice. Male C57BL/6J mice (8 weeks old) were fed ad libitum with a high-fat diet (HFD) for 8 weeks before the start of the pharmacological treatments. During pharmacological treatments, the HFD was maintained, and food intake and body weight were measured daily. The food consumed was calculated by subtracting the food left in the hoppers from the initial pre-weighed amount.

rats = test: Irwin test and body temperature (GLP); type: in vivo; conditions: rats, 2, 9 and 36 mg kg^−1 oral
Procedure: The study involved four groups of six male Wistar rats weighing between 154.0 g and 185.9 g. […] On study day, animals were first scored by the Irwin standardized observation battery, and body temperature was measured. […] Irwin scores and measurement of body temperature were done again at 1, 3, 6, 8 and 24 h after dose.

Q: COc1ccc(CO[C@H]2CC[C@@]3(C)C(=CC[C@H]4[C@@H]5CC[C@H](C(C)=O)[C@@]5(C)CC[C@@H]43)C2)cc1 [AEF0117, 3β-(4-methoxybenzyloxy)pregn-5-en-20-one] was tested. Which “Overall effect: inhibition of spontaneous food-intake” value (DIO mice) did it give?
A: The value was “No”.

Q: What about the “effect on spontaneous behavior in the home cage (Irwin test)” value (rats) of the same compound?
A: Its value is “had no effect”.
